Experimental data as given in US7345070B2, “Peroxisome proliferator activated receptor agonists” (Eli Lilly and Company, priority 2000, dated 2008).

Columns and labels:
huPPARγ [1] = biological target: T1, huPPARγ (Homo sapiens, UniProt P37231); test: Cotransfection assay in CV-1 cells, huPPARγ; type: cell-based; design: Appropriate PPARs and RXRα were constitutively expressed using plasmids containing the CMV promoter; expressed in transfected cells; host or cells: CV-1 cells; conditions: AOX PPRE luciferase reporter, relative to PPARγ agonist reference molecule; for Emax: read-out: huPPARγ CTF Efficacy
T1 sequence (P37231 1-505): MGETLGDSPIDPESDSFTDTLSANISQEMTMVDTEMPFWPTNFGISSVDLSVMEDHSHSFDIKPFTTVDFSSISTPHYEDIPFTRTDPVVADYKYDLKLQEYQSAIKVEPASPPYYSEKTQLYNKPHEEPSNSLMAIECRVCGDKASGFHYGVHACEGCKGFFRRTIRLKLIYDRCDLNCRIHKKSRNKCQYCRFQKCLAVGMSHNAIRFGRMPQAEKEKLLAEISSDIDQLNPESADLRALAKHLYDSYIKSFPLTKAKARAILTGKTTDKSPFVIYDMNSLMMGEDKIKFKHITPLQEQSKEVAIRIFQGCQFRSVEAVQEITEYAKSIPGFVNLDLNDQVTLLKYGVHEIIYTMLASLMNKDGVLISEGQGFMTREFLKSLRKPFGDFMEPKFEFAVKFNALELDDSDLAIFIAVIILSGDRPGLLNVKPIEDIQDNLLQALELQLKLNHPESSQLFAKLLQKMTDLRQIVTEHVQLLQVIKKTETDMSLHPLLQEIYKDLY
T1 sequence (P19793 1-462 partner): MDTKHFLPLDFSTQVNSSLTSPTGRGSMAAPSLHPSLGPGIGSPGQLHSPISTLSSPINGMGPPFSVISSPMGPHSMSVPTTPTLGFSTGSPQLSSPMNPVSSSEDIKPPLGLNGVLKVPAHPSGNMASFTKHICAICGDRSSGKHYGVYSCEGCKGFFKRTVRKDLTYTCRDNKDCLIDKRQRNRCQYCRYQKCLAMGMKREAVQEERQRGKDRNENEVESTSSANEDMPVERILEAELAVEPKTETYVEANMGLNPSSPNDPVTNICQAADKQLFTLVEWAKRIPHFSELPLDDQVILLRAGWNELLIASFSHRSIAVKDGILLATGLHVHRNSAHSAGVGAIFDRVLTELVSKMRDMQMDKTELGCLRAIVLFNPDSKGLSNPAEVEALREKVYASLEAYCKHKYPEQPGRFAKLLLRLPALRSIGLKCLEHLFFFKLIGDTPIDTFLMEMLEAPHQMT
Description: (§1) DNA-dependent binding (ABCD binding) was carried out using SPA technology with PPAR receptors. Tritium-labeled PPARα and PPARγ agonists were used as radioligands for generating displacement curves and IC50 values with compounds of the invention. Cotransfection assays were carried out in CV-1 cells. The reporter plasmid contained an acylCoA oxidase (AOX) PPRE and TK promoter upstream of the luciferase reporter cDNA. Appropriate PPARs and RXRα were constitutively expressed using plasmids containing the CMV promoter. […] In order to eliminate such interference, a GAL4 chimeric system was used in which the DNA binding domain of the transfected PPAR was replaced by that of GAL4, and the GAL4 response element was utilized in place of the AOX PPRE. Cotransfection efficacy was determined relative to PPARα agonist and PPARγ agonist reference molecules. Efficacies were determined by computer fit to a concentration-response curve, or in some cases at a single high concentration of agonist (10 μM). For binding or cotransfection studies with receptors other than PPARs, similar assays were carried out using appropriate ligands, receptors, reporter constructs, etc., for that particular receptor.
(§2) These studies were carried out to evaluate the ability of compounds of the invention to bind to and/or activate various nuclear transcription factors, particularly huPPARα (“hu” indicates “human”) and huPPARγ. These studies provide in vitro data concerning efficacy and selectivity of compounds of the invention. Furthermore, binding and cotransfection data for compounds of the invention were compared with corresponding data for marketed compounds that act on either huPPARα or huPPARγ.

huPPARα [2] = test: Cotransfection assay in CV-1 cells, huPPARα; type: cell-based, human; conditions: GAL4 chimeric system, relative to PPARα agonist reference molecule
Description: as §1, §2

huPPARγ [3] = biological target: T1, huPPARγ; test: DNA-dependent binding (ABCD binding) using SPA technology, huPPARγ; conditions: SPA displacement of tritium-labeled PPARγ agonist radioligand
Description: as §1, §2

HuapoAI transgenic mice = test: Evaluation of triglyceride and cholesterol level in HuapoAI transgenic mice; type: in vivo; conditions: Mus musculus, 168 h; human apoAI transgenic mice, 30 mg/kg oral gavage daily for 7 days, FPLC area under the curve, over mice receiving vehicle; read-out: % HDLc Increase
Description: After an acclimation period of 2 weeks, animals were individually identified by ear notches, weighed, and assigned to groups based on body weight. Beginning the following morning, mice were dosed daily by oral gavage for 7 days using a 20 gauge, 1½″ curved disposable feeding needle (Popper & Sons). […] Prior to termination on day 7, mice were weighed and dosed. Three hours after dosing, animals were anesthetized by inhalation of isoflurane (2-4%; Abbott Laboratories, Chicago, Ill.) and blood obtained via cardiac puncture (0.7-1.0 ml). Whole blood was transferred to serum separator tubes (Vacutainer SST), chilled on ice, and permitted to clot. Serum was obtained after centrifugation at 4° C. and frozen until analysis for triglycerides, total cholesterol, compound levels, and serum lipoprotein profile by fast protein liquid chromatography (FPLC) coupled to an inline detection system. After sacrifice by cervical dislocation, the liver, heart and epididymal fat pads were excised and weighed.
The absorbance of the dye produced is linearly related to the analyte in the sample. The assays were further modified in our laboratory for use in a 96 well format. […] An additional aliquot of sample, pipetted to a third well and diluted in 200 μl water, provided a blank for each specimen. […] Sample absorbances were compared to a standard curve (100-800, 10-500, and 100-400 mg/dl for glucose, triglycerides and total cholesterol, respectively). […] All samples from an experiment were assayed at the same time to minimize inter-assay variability.
Serum lipoproteins were separated and cholesterol quantitated with an in-line detection system. Sample was applied to a Superose® 6 HR 10/30 size exclusion column (Amersham Pharmacia Biotech) and eluted with phosphate buffered saline-EDTA at 0.5 ml/min. […] The change in voltage corresponding to change in cholesterol concentration was plotted vs time and the area under the curve corresponding to the elution of VLDL, LDL and HDL was calculated using Perkin Elmer Turbochrome software.

huPPARα [4] = biological target: T2, huPPARα (Homo sapiens, UniProt Q07869); test: DNA-dependent binding (ABCD binding) using SPA technology, huPPARα; conditions: SPA displacement of tritium-labeled PPARα agonist radioligand
T2 sequence (Q07869 1-468): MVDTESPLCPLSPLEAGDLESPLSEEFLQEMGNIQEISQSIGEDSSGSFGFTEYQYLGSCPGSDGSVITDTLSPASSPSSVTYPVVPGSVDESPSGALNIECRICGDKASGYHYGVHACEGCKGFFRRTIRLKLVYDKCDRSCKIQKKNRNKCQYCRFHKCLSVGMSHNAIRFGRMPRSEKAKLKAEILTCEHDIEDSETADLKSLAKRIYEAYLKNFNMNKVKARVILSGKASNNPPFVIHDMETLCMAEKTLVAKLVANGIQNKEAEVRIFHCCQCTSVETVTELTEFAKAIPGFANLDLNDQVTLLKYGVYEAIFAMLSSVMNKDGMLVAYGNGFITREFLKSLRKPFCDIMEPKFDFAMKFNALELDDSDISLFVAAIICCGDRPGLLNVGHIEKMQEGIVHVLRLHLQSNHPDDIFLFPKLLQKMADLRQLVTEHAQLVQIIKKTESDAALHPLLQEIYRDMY
T2 sequence (P19793 1-462 partner): T1 sequence (P19793 1-462 partner)
Description: as §1, §2

Row | Emax (huPPARγ [1]) [%] | IC50 (huPPARγ [3]) [nM] | IC50 (huPPARα [4]) [nM] | huPPARγ CTF Efficacy (huPPARγ [1]) [%] | SMILES | huPPARα CTF Efficacy (huPPARα [2]) [%] | change in vivo at 30 mg/kg (HuapoAI transgenic mice) [%]
1 | 73 | 19 | 53 |  | Cc1oc(C2CCCCC2)nc1CCOc1ccc(CC(C)(Oc2ccc(Cl)cc2)C(=O)O)cc1 (stereo not drawn) [Example 31, 2-(4-Chlorophenoxy)-3-{4-[2-(2-cyclohexyl-5-methyl-oxazol-4-yl)-ethoxy]-phenyl}-2-methyl-propionic acid] | 63 | 114
2 | 58 | 655 | 175 |  | CCC(Cc1ccc(OCCc2nc(C3(C)CCCCC3)oc2C)cc1)(Oc1ccccc1)C(=O)O (stereo not drawn) [Example 49, 2-(4-{2-[5-Methyl-2-(1-methyl-cyclohexyl)-oxazol-4-yl]-ethoxy}-benzyl)-2-phenoxy-butyric acid] | 63 | 17
3 |  |  |  | 0 | CC(C)(Oc1ccc(C(=O)c2ccc(Cl)cc2)cc1)C(=O)O [Fenofibric acid, reference compound] | 16 | 
